From patent US12492236B2, “Fusion proteins for the treatment of cardiometabolic diseases” (Shattuck Labs, Inc., priority 2022, dated 2025)
“Also recorded” adds a separate entry of the source. Where no end group is shown, it is not given here.

Columns and labels:
GIPR = target: T1, GIPR (Rattus norvegicus, UniProt P43219); assay: pGloSensor-22F cAMP biosensor assay for GIPR agonism and antagonism in rat INS-1 cells; assay type: cell-based; parameters: dose or concentration left out as unconfirmed; details: mixed with GIP(Ag)
T1 construct: endogenous in cells; host or cells: rat INS-1 insulinoma cells (with cAMP-luciferase reporter / pGloSensor-22F biosensor)
T1 sequence (P43219 19-455): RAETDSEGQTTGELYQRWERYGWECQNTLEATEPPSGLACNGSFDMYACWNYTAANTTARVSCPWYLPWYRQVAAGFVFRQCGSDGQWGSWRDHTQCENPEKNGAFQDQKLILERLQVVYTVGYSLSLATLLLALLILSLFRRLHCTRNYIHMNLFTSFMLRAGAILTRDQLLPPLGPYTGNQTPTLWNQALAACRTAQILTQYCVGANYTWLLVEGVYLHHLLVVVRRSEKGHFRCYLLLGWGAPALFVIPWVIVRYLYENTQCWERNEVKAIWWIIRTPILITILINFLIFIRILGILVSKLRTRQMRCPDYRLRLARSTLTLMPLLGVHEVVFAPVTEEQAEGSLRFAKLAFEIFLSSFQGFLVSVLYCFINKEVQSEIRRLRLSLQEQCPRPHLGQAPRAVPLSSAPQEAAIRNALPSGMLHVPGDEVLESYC
Procedure: A series of GIP antagonist peptides were evaluated at blocking human GIP (hGIP) agonism and the induction of cAMP. Briefly, rat INS-1 cells having pGloSensor-22F (Promega) were constructed and used to evaluate GIPR agonism and antagonism. […] The conformational change leads to the activation of the luciferase enzyme, thereby allowing detection of activation of GIPR, which produces cAMP upon activation.
To assay for GIPR agonism, rat INS-1 cells having pGloSensor-22F biosensor were treated with increasing concentrations of GIP(Ag). Immediately after the addition, the luminescence of the cells was measured, normalized using the basal luminescence and plotted.
GIPR antagonism was measured as the inhibition of GIP(Ag)-induced activation of the cAMP-luciferase reporter gene in rat INS-1 cells having pGloSensor-22F biosensor. The following GIP derivatives accessed in this assay for GIPR antagonism: GIP(Ant 3-30), GIP(Ant 3-30NH2), (GIP(Ant 3-30) having amidated carboxy terminus), GIP(AntPro3), GIP(AntPro3NH2), GIP(Ant3-30, Pro3) and GIP(Ant3-30, Pro3NH2). Briefly, rat INS-1 cells having pGloSensor-22F were treated with increasing doses of the above various GIP derivatives, mixed with […] GIP(Ag). Immediately after the addition, the luminescence of the cells was measured, normalized using the basal luminescence and plotted.
The GIP(Ag) was re-evaluated across a broader concentration range. Rat INS-1 cells having pGloSensor-22F biosensor were treated with increasing concentrations of GIP(Ag). Immediately after the addition, the luminescence of the cells was measured, normalized using the basal luminescence and plotted.
The GIP(AntPro3) and GIP(AntPro3NH2) were re-evaluated across a broader concentration range. Briefly, rat INS-1 cells having pGloSensor-22F were treated with increasing doses of GIP(AntPro3) and GIP(AntPro3NH2), mixed with […] GIP(Ag). Immediately after the addition, the luminescence of the cells was measured, normalized using the basal luminescence and plotted.

[1] = system: HFD-fed mice (Male C57BL/6); assay: glucose tolerance test (GTT) model in HFD-fed mice; assay type: in vivo; details: for serum insulin time course following glucose administration: FIG. 7C; for serum glucose time course following glucose administration: i.v. treatment, 18 hours fast, 2 g/kg glucose, versus PBS control (200 to about 800 mg/dl), FIG. 7A
Procedure: Cages were changed once, then changed once a week.
The mice administered the above treatment by i.v. injections. The mice were then fasted for 18 hours and administered a dose of 2 g/kg glucose by i.v. injections. Blood samples were drawn by tail clip bleeding at 15, 30 and 60 minutes post dosing and cardiac bleeding was used at 2 hours after glucose injection as end-point.

[2] = system: HFD-fed mice (Male C57BL/6); assay: longer-term obesity model in HFD-fed mice; details: for blood glucose levels: Days 0, 1, 10 and 15, compared to the untreated mice, FIG. 8E; for liver histology: hepatocellular ballooning and steatosis: H&E; for plasma insulin levels on Day 1: between 15 and 120 minutes after treatment, one way ANOVA p<0.05, FIG. 8C left panel; for average daily food intake: compared to the untreated mice, FIG. 8D; for liver weight: livers of PBS control mice versus treated mice / subcutaneous white adipose tissue (sWAT) weight: day 19 necropsy; for liver weight: livers of PBS control mice versus treated mice: FIG. 8G; for subcutaneous white adipose tissue (sWAT) weight: versus PBS control, FIG. 8H; for tolerability: obesity model; for plasma insulin levels on Day 15: one way ANOVA p<0.0001, FIG. 8C right panel; for change in body weight: tail vein dosing Day 0, 4, 7, 10, 14, 18, FIG. 8A
Description: Briefly, mice (Male C57BL/6) were of approximately 13 weeks of age were housed 4 mice per cage. Following 2 weeks of acclimation, mice were introduced to 60% kcal HFD (Research Diets D12492). Cages were changed once, then changed once a week. Weekly body weights and non-fasted blood glucose were collected. […] The longer-term obesity model assesses a number of end points associated with obesity related type 2 diabetes (FIG. 6A).
Mice (Male C57BL/6) were of approximately 13 weeks of age were housed 4 mice per cage. Following 2 weeks of acclimatation, mice were introduced to 60% kcal HFD (Research Diets D12492). Cages were changed once, then changed once a week. Weekly body weights and non-fasted blood glucose were collected.
Mice were injected by tail vein with vehicle or the drugs on Day 0, Day 4, Day 7, Day 10, Day 14, and Day 18. Body weights were measured every 2 days. Change in body weight was calculated and plotted.
Cumulative food intake was measured between day 0 and 3, between day 4 and 7, between day 7 and day 11, and between day 11 and day 14, and represented as average daily food intake. For food consumption, remaining food was weighed on days 3, 8, and 15, and subtracted from the starting weight. This value was then normalized to the number of mice in the cage, and the number of days the mice had access to the food prior to weighing.
Blood glucose levels were measured on Days 0, 1, 10 and 15 and plotted.
On day 19 during terminal necropsy, liver and subcutaneous white adipose tissue were recovered weighed from treated animals.
To further analyze the changes in liver, histopathological analysis was conducted. Briefly, the liver tissue was stained with hematoxylin and eosin (H&E) and evaluated using standard techniques.

GIP receptor (GIPR) = target: T2, GIP receptor (GIPR) (Rattus norvegicus, UniProt P43219); assay: cAMP-Glo assay in rat insulinoma INS-1 cells harboring a cAMP-luciferase reporter gene; assay type: cell-based; details: 1 hour glucose, then 2 hour incubation, FIG. 4A
T2 construct: endogenous in cells; host or cells: rat INS-1 insulinoma cells (with cAMP-luciferase reporter / pGloSensor-22F biosensor)
T2 sequence (P43219 19-455): T1 sequence (P43219 19-455)
Description: Rat insulinoma INS-1 cells harboring a cAMP-luciferase reporter gene were used to study the activation of GIPR. Without wishing to be bound by theory, the activation of GIPR leads to temporary depletion of ATP because of consumption of ATP in cyclization reaction to produce cAMP as well as by phosphorylation by protein kinase A of its substrate. Without wishing to be bound by theory, the temporary depletion of ATP leads to an inhibition of luciferase activity, which needs ATP as a substrate.

[3] = target: T3, glucose-dependent insulinotropic polypeptide receptor (GIPR) (Homo sapiens, UniProt P48546); assay: GeneBLAzer GIPR-CRE-bla HEK293T cell-based reporter assay; details: increasing amounts, FIG. 3B
T3 construct: host or cells: HEK293T (GeneBLAzer GIPR-CRE-bla)
T3 sequence (P48546 22-466): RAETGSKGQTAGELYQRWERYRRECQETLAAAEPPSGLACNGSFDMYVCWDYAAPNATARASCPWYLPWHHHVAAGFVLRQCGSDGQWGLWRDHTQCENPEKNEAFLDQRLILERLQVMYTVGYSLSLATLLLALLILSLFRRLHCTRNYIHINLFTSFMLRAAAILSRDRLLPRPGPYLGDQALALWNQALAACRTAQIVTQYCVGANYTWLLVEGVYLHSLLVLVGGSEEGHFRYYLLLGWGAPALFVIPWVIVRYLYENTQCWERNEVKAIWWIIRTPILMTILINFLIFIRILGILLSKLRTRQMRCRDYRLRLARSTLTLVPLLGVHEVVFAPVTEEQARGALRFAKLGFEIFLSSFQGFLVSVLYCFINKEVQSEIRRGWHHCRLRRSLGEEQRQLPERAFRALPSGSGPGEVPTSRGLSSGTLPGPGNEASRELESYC
Procedure: This assay is diagrammatically represented in FIG. 3A. […] In the presence of the β-lactamase LiveBLAzer™ substrate, cells expressing β-lactamase fluoresce blue (460 nm), while those not expressing β-lactamase fluoresce green (530 nm); higher 460/530 ratio indicates the activation of GIPR.
Briefly, GeneBLAzer® GIPR-CRE-bla HEK293T cells were added to wells of black-wall assay plates. […] To each well, LiverBLAzer-FRET B/G substrate mixture was added. The plate was covered with plate sealer and incubated at room temperature for 2 hours in the dark. Fluorescence emission was measured on SpectraMax plate reader at 460 nm and 530 nm with excitation set to 409 nm. After subtraction of background, average value at 460 nm (blue color) was divided by average value at 530 nm (green color) to obtain the 460/530 ratio.

[4] = broader concentration range, FIG. 5B

Substance | inhibition of GIP(Ag)-induced activation of the cAMP-luciferase reporter gene (GIPR antagonism) (GIPR; [4]) | inhibition of GIP(Ag)-induced activation of the cAMP-luciferase reporter gene (GIPR antagonism) (GIPR; FIG. 5A) | serum insulin time course following glucose administration [1] | serum glucose time course following glucose administration [1] | glucose tolerance ([1]; summary of GTT model) | blood glucose levels [2] | weights of individual mice ([2]; FIG. 8B) | liver histology: hepatocellular ballooning and steatosis ([2]; FIG. 8J) | plasma insulin levels on Day 1 [2] | average daily food intake [2] | liver weight: livers of PBS control mice versus treated mice [2] | subcutaneous white adipose tissue (sWAT) weight [2] | tolerability [2] | plasma insulin levels on Day 15 [2] | decrease in liver collagen staining relative to tirzepatide or dulaglutide ([2]; picrosirius red, FIG. 8I) | liver collagen staining (fibrosis) ([2]; picrosirius red, FIG. 8I) | change in body weight [2] | liver histology: hepatocellular ballooning and steatosis ([2]; higher magnifications, compared to untreated animals, FIG. 8K) | inhibition of luciferase (GIPR activation, cAMP accumulation) (GIP receptor (GIPR)) | 460/530 ratio, indicative of the activation of GIPR [3]
GIP(AntPro3): GIP antagonist peptide, SEQ ID NO: 97 (YAPGTFISDYSIAMDKIHQQDFVNWLLAQKGKKNDWKHNITQ) | dose-dependent inhibition of GIP(Ag)-induced activation | more potent inhibition of GIP agonist signaling than the others tested; also recorded: maximal level of a dose-dependent inhibition of GIP(Ag)-induced activation | – | – | – | – | – | – | – | – | – | – | – | – | – | – | – | – | – | –
GIP(AntPro3NH2): GIP antagonist peptide GIP(AntPro3), presumably having amidated carboxy terminus (YAPGTFISDYSIAMDKIHQQDFVNWLLAQKGKKNDWKHNITQ-NH2) | dose-dependent inhibition of GIP(Ag)-induced activation | more potent inhibition of GIP agonist signaling than the others tested; also recorded: maximal level of a dose-dependent inhibition of GIP(Ag)-induced activation | – | – | – | – | – | – | – | – | – | – | – | – | – | – | – | – | – | –
GLP-1-Fc-GIP(AntPro3): GLP-1 fused to GIP antagonist peptide (amino acids 1-42 having E3P mutation) via IgG1 hinge-CH2-CH3 Fc domain; SEQ ID NO: 95 | – | – | rapid induction of insulin | much smaller increase in serum glucose | improved glucose tolerance | decrease in blood glucose | induced weight loss | a decrease in hepatocellular ballooning and steatosis | rapid decrease in insulin levels | decrease in food intake | much heavier compared to the mice receiving treatments | decreased | well tolerated and no overt toxicities were noted | significant decrease in the levels of insulin | greater decrease in collagen staining | a decrease in collagen staining | progressive weight loss | – | – | –
dulaglutide [reference compound] | – | – | – | – | – | decrease in blood glucose | – | a decrease in hepatocellular ballooning and steatosis | rapid decrease in insulin levels | decrease in food intake | much heavier compared to the mice receiving treatments | decreased | well tolerated and no overt toxicities were noted | significant decrease in the levels of insulin | – | a decrease in collagen staining | progressive weight loss | – | – | –
tirzepatide [reference compound] | – | – | rapid induction of insulin | much smaller increase in serum glucose | – | decrease in blood glucose | – | a decrease in hepatocellular ballooning and steatosis | – | decrease in food intake | much heavier compared to the mice receiving treatments | decreased | – | significant decrease in the levels of insulin | – | a decrease in collagen staining | progressive weight loss | significant decrease in hepatocellular ballooning and steatosis | dose-dependent and saturable inhibition of luciferase with similar potency | dose-dependent and saturable increase in 460/530 ratio
